These results are taken from patent US7709002B1, “Mutated ras peptides for generation of CD8+Cytotoxic T lymphocytes” (The United States of America as represented by the …, priority 1996, dated 2010).

The test system of assay [1] is CD4+ T cell line of RAS patient 43. Briefly: Lymphoproliferation (3H-thymidine uptake) of PBMC cultures / CD4+ T cell line of RAS patient 43. The settings on record: for Proliferation Response cpm(± SEM) / Proliferation Response SI (stimulation index): 4th IVS. It is filed as cell-based, human.
Assay [2] has the same test system. As to the kind of experiment: Proliferation of patient 43 CD4+ T cell line to ras protein from tumor cell extracts captured on pan-ras MAb RAS 10 and presented by autologous BLCL. It is filed as cell-based, human.
The subject of assay [3] is CD4+ T cell line of patient 29. As to the kind of experiment: Lymphoproliferation (3H-thymidine uptake) of PBMC cultures / CD4+ T cell line of patient 29. It is filed as cell-based, human. The source says: In vitro stimulation (IVS) cycles for evaluation of CD4^+ T cell responses. IVS cycles were established to: (i) amplify detection of a low proliferative response, (ii) compare “pre-immune” to “post-immune” lymphocytes over a period to time for assessment of potential peptide-specific reactivity, and (iii) derive peptide-specific CD4^+ T cell lines in culture for detailed phenotypic and functional characterization. […]
Proliferation response. […] Cells were collected with a TOMTEC MACH II 96 harvester (Wallace, Inc., Gaithersburg, Md.) and incorporated radioactivity was measured by liquid scintillation spectroscopy (1205 Betaplate flat bed LS counter; Wallace). MHC class I or II restriction was analyzed in MAb blocking experiments using anti-HLA-A, B, C (clone G46-2.6) or anti-HLA-DR, anti-HLA-DP or anti-HLA-DQ (clones TU36, HI43 or TU169, respectively) (all from Pharmingen). […] Results were expressed as the mean cpm±SEM of triplicate cultures or stimulation index, which was calculated by dividing the cpm of experimental cultures (means counts of triplicate wells) by the cpm of unstimulated control cultures (mean counts of triplicate wells).

Assay [4] relates to T2 cell line as target of CD8+ CTL line of RAS patient 32. As to the kind of experiment: 51Cr-release cytotoxicity of CD8+ CTL line of RAS patient 32 against peptide-pulsed T2 targets. It is filed as cell-based, human. The settings on record: peptide 10 μg/ml, IVS cycle 7 (FIG. 5). On the procedure:
FIG. 5. Cytolytic activity by CD8^+ CTL line of RAS patient 32 is peptide-specific. The CD8^+ CTL line of RAS patient 32 (see FIG. 3) was assayed against the T2 cell line as a target, incubated with and without different ras peptides (10 μg/ml), as shown. In parallel, the extent of NK activity was evaluated against K562 cells. Cytotoxicity was determined by ^51Cr-release, and the results expressed at different E/T ratios following IVS cycle 7. Similar results were observed using the second, independently-derived CD8^+ CTL line as described in Table 6.
IVS cycles for evaluation of CD8^+ T cell responses from HLA-A2+Patients. Freshly-thawed PBMC (from ras patients 32 and 33), derived pre-vaccination and post-third vaccination, were enriched in T lymphocytes by passage over nylon wool columns (Robbins Scientific, Sunnyvale, Calif.) and then depleted of CD4^+ T cells by negative selection via panning on anti-CD4 MAb-coated T25 flasks (Applied Immune Sciences, Santa Clara, Calif.). For the first IVS cycle, CD8^+ enriched lymphocytes (5×10^5/well) were cultured in 24-well plates with irradiated, autologous PBMC (5×10^6/well) as APC which had been preincubated for 3 hours with the appropriate mutant ras peptide ([…]) plus human β2-microglobulin (10 μg/ml) (Calbiochem, San Diego, Calif.). […] IL-2 (10 U/ml) was added 3 days later. After an additional 7 days, viable cells (2-5×10^5/well) were re-cultured by weekly stimulation with APC pre-pulsed with peptide/β2-microglobulin, and IL-2 added one day later. After the third or fourth IVS cycle, autologous PBMC were replaced with EBV-transformed, autologous BLCL (5×10^5/well) as APC. […] CTL activity was evaluated from cultures 5 to 6 days after Ag restimulation.
Cytotoxic response. Cytotoxicity was examined by a conventional ^51Cr-release assay, as described (6). Briefly, target cells (i.e. T2, C1R-A2, BLCL, K562) were radiolabeled with 200 μCi of Na2[^51Cr]04 (Amersham) for 60 minutes at 37° C., followed by thorough washing to remove unincorporated isotope. Effectors and targets (1×10^4/well) were incubated in 96-well, U-bottomed plates (Costar) at various effector target (E/T) ratios in the absence and presence of peptide (+/−monoclonal antibody (MAb) directed against CD4, CD8 or HLA-A2 molecules (clone BB7.2 from ATCC)) for up to 6 hours. After incubation, supernatants were collected using a Supernatant Collection System (Skatron, Sterling, Va.) and radioactivity measured in a γ-counter (Packard Instruments, Downers Grove, Ill.). Cytotoxic activity was defined as percent specific release of ^51Cr and determined by the equation: [(experimentalcpm−spontaneouscpm)/maximumcpm−spontaneouscpm)]×100. Results were expressed as the mean±SEM of triplicate cultures. […]

For assay [5], the system named is C1R-A2 targets / autologous EBV-B cells as targets of CD8+ CTL line of patient 29. As to the kind of experiment: 51Cr-release cytotoxicity of CD8+ CTL line of patient 29 against C1R-A2 or autologous EBV-B targets. Type of assay: cell-based, human. As to conditions: patient 29 lymphocytes after IVS cycle 7 (FIG. 9A). On the procedure:
FIGS. 9A and 9B. Production of a peptide-specific CD8^+ T cell line from post-vaccinated lymphocytes of patient 29. FIG. 9A: A CD8^+ CTL line was established from post-vaccinated PBMC of patient 29 and assayed for peptide specificity against C1R-A2 targets. Cytotoxicity was determined by ^51Cr-release, and the results expressed at different effector/target ratios following IVS cycle 7. FIG. 9B: Using this CD8^+ CTL line, the requirement for HLA-A2 in peptide presentation (by autologous EBV-B cells as targets) was determined in blocking experiments using MAb (clone BB7.2; ascites=1:30 dilution) directed against that molecule (or using an isotype-matched MAb). […] CD4 and CD8 MAbs were as described for FIGS. 8A and 8b. Control lysis in the absence of peptide or in the presence of ras5-14(Gly12) was <3%.
(§1) Cytotoxic response. Cytotoxicity was examined by a conventional ^51Cr-release assay, as described (6). […] After incubation, supernatants were collected using a Supernatant Collection System (Skatron, Sterling, Va.) and radioactivity measured in a γ-counter (Packard Instruments, Downers Grove, Ill.). Cytotoxic activity was defined as percent specific release of ^51Cr and determined by the equation: [(experimentalcpm−spontaneouscpm)/maximumcpm−spontaneouscpm)]×100. Results were expressed as the mean±SEM of triplicate cultures. […]

Assay [6] deals with SW480 colon carcinoma cell line (HLA-A2+, rasVal12+). Briefly: 51Cr-release cytotoxicity of CTL against SW480 colon carcinoma cells. Type of assay: cell-based, human. The method, then:
FIGS. 10A and 10B. Anti-ras Val12-specific CTL from patient 29 lyse SW480 tumor targets in the absence of exogenous peptide. FIG. 10A: Anti-ras Val12-specific CD8^+ CTL from patient 29 were assayed against the SW480 colon carcinoma cell line (HLA-A2^+, rasVal12+) in the absence of exogenous peptide, with or without IFN-γ pretreatment (250 U/ml for 24 hr) of the target cells. CD8^+ CTL reactive with the […] peptide were used as an irrelevant effector cell population. Cytotoxicity was determined by ^51Cr-release, and the results expressed at different effector/target ratios. FIG. 10B: In parallel to 10A, anti-ras or anti-MART-1-specific CTL were assayed against SW480 (±IFN-γ pretreatment) at an effector/target ratio of 10/1 in the absence or presence of exogenous peptide (5 μg/ml). […] Flow cytometric analysis of SW480 cells for expression of HLA-A2: untreated=65.4% with MFI of 29.8; IFN-γ-pretreated=99.5% with MFI of 349.6. Flow cytometric analysis of SW480 cells for expression of ICAM-1: untreated=16.0% with MFI of 30.3; IFN-γ-pretreated=98.6% with MFI of 181.9.
as §1
Studies were also carried out to determine whether such peptide-induced CD8^+ CTL could recognize a processed form of the corresponding mutant ras protein. […] In contrast to the CD4^+ analysis, which measured lymphoproliferation to soluble protein, the CD8^+ CTL analysis reflected lytic ability against SW480 cells harboring the naturally-occurring mutation in the absence of exogenously added peptide. […]

Assay [7] deals with T1, human HLA-A2 (Homo sapiens, UniProt P04439, D140Y/D185E/D98H/E176V/E277Q/G131W/G231S/I119V/I121R/I166T/I218V/L300P/L318F/N151K/N90K/P208A/P217A/Q86G/Q94H/R138H/R169H/T345S).
T1 construct: The 174CEM.T2 cell line (“T2”), (transport deletion mutant); endogenous in cells; host or cells: 174CEM.T2 (T2) human cell line
As to the kind of experiment: HLA-A2 binding bioassay on T2 cells (flow cytometry). The settings on record: T2 bioassay. On the technique in general: In flow cytometry, cells or beads pass a laser one at a time.

In assay [8] the test system is HLA-A2+ peptide-pulsed targets. As to the kind of experiment: Generation and cytotoxicity of ras4-12(V12)-specific CD8+ CTL line from a normal HLA-A2+ donor. The settings on record: wild-type printed as wild-type ras peptide. Type of assay: cell-based, human.
The mark [9] stands for this setting: Post-Immune culture, peptide 3 μg/ml.
[10] abbreviates: Post-Immune culture, peptide 10 μg/ml.
Where [11] appears, read: Post-Immune culture, peptide 30 μg/ml.
[12] abbreviates: Pre-Immune culture, peptide 3 μg/ml.
Where [13] appears, read: Pre-Immune culture, peptide 10 μg/ml.
Where [14] appears, read: Pre-Immune culture, peptide 30 μg/ml.
The mark [15] stands for this setting: Pre-Immune culture, peptide 100 μg/ml.

For “Lys-Leu-Val-Val-Val-Gly-Ala-Gly-Gly-Val-Gly-Lys-Ser (KLVVVGAGGVGKS) [ras5-17(Gly12)]”, the “Proliferation Response cpm(± SEM)” value in assay [1] (Post-Immune culture (post-third vaccination), peptide 100 μg/ml) amounted to 640 ± 23 cpm; in assay [1] (setting [9]), 694 ± 19 cpm; in assay [1] (setting [10]) it was 725 ± 27 cpm; in assay [1] (setting [11]), 819 ± 142 cpm; in assay [1] (setting [12]), 824 ± 255 cpm; in assay [1] (setting [13]), 768 ± 257 cpm. The “Proliferation Response cpm(± SEM)” value in assay [1] (setting [14]) is on record as 849 ± 14 cpm; in assay [1] (setting [15]) it was 790 ± 456 cpm; in assay [2] (Table 5: peptide 10 μg/ml, RAS 10 coating +, BLCL +), 8,844 ± 753 cpm; in assay [2] (peptide 30 μg/ml, wells pre-coated with RAS 10, BLCL as APC) it was 8,130 ± 314 cpm. Moreover, the “Proliferation Response SI (stimulation index)” value came out at 1.0 in assay [1] (setting [9]); 1.1 in assay [1] (setting [10]); 1.2 in assay [1] (setting [11]); 1.0 in assay [1] (Post-Immune culture, peptide 100 μg/ml); 0.9 in assay [1] (setting [12]); 1.1 in assay [1] (setting [13]). The “Proliferation Response SI (stimulation index)” value was determined as 1.0 in assay [1] (setting [14]) and 0.9 in assay [1] (setting [15]). Moreover, the “Proliferation, control culture (cpm±SEM)” value in assay [1] (T cells+BLCL+peptide 10 μg/ml, IVS cycle 15 (FIG. 2B)) is on record as 7,690±383 cpm; in assay [3] (T cells+EBV-B cells+peptide 3 μg/ml, IVS cycle 4 (FIG. 8B), without peptide 19,256±1926), 18,116±1474 cpm. Besides, the “Peptide-induced proliferation of patient 29 post-vaccination PBMC (in words)” value in assay [3] (post-vaccination, following IVS (FIG. 8A)) is “no proliferative response was detectable”.

On to “Lys-Leu-Val-Val-Val-Gly-Ala-Val-Gly-Val [ras5-14(Val12)]”, for which the “Sensitization of T2 targets for lysis (in words)” value in assay [4] is listed as “failed to stimulate lysis”. The “Peptide-specific lysis of C1R-A2 targets (in words)” value in assay [5] is “displayed peptide-specific, cell-mediated lysis”. In assay [6] (peptide 5 μg/ml, E/T 10/1 (FIG. 10B), control printed as wild-type ras peptide), the “Effect of exogenous peptide on anti-rasVal12 CTL-mediated lysis of SW480” value is recorded as “enhanced”. In assay [6] (with or without IFN-γ (FIG. 10B)), the “Lysis of SW480 by anti-MART CTL in presence of exogenous peptide” value was “failed to lyse SW480 target cells”.

Consider “ras4-12(G12): proto-ras 9-mer sequence positions 4-12 with Gly at position 12 (YKLVVVGAG)”, for which, in assay [7], the “Binding to HLA-A2 on T2 cells (in words)” value was “failed to bind to HLA-A2”. In assay [8], the “Generation of peptide-specific CTL line / lysis of peptide-pulsed targets (in words)” value is listed as “No lysis was detectable”.
